Values quoted from earlier work as cited in US20090304885A1, “Coffee and Tea Baking Compounds and Method of Producing The Same” (priority 2008, published 2009).

Experiments:
[1] = animal models
[2] = system: methylazoxymethanol-induced large intestinal tumors; settings: hamster

**Q.** With O=C(O)/C=C/c1ccc(O)c(O)c1 [caffeic acid] as the compound, how does the cancer preventive activities [1] read?
**A.** exert cancer preventive activities

**Q.** With O=C(/C=C/c1ccc(O)c(O)c1)O[C@@H]1C[C@](O)(C(=O)O)C[C@@H](O)[C@H]1O [chlorogenic acid] as the compound, how does the antibacterial effect (Enterobacter cloacae) read?
**A.** particularly strong effect

**Q.** And the inhibition of tumors [2]?
**A.** inhibit

**Q.** What about the antibacterial effect (Serratia marcescens) of the same compound?
**A.** particularly strong effect

**Q.** With O=C(O)c1ccc(O)c(O)c1 [protocatechuic acid] as the compound, how does the antibacterial effect (Enterobacter cloacae) read?
**A.** particularly strong effect

**Q.** And the antibacterial effect (Serratia marcescens)?
**A.** particularly strong effect

**Q.** Which antibacterial effect (Enterobacter cloacae) does the source give for Cn1c(=O)c2c(ncn2C)n(C)c1=O [caffeine] here?
**A.** particularly strong effect

**Q.** What about the antibacterial effect (Serratia marcescens) of the same compound?
**A.** particularly strong effect

**Q.** With O=C(O)/C=C/c1ccc(O)cc1 [para-coumaric acid] as the compound, how does the cancer preventive activities [1] read?
**A.** exert cancer preventive activities
